Data from patent publication US20240239759A1, “ISOXAZOLINE COMPOSITIONS AND THEIR USE AS ANTIPARASITICS” (Intervet Inc., priority 2007, published 2024).
Several values for one entry are separate records, joined by “and”; a condition that tells them apart may be missing. Equal values may be shown once.

Legend:
adult fleas (C. felis) = experiment: Efficacy against fleas on mice (Example 2A); format: in vivo, Ctenocephalides felis
Experimental: (§1) Mice were divided into groups of three, and treated topically with 100 ppm body weight, orally with 10 mg/kg bodyweight, or subcutaneously with 10 mg/kg bodyweight of Compound 11-1, fipronil (positive control), or nothing (negative control). These mice were sedated and infested with adult fleas (C. felis) 1, 3, 6, and 24 hr after treatment. Fleas were recovered from the mice after approximately 30 minutes of feeding. The assessment of flea inhibition (% of dead and damaged fleas) was conducted 1 and 24 hr after each infestation.

[1] = test system: cat fleas (Ctenocephalides felis); experiment: Adult fleas fed on artificial membranes with spiked blood (Example 1); settings: 48 hr continuous feeding
Experimental: Adult fleas (20-30) were fed on artificial membranes with blood spiked with Compound 10-1, Compound 11-1, or a positive control (fipronil) at a concentration of 100, 10, or 1 ppm. Flea efficacy was assessed after 48 hr of continuous feeding by comparing the number of killed and damaged fleas with the number of fed fleas. Flea efficacy was 100% for Compound 10-1, Compound 11-1, and fipronil at 100, 10, and 1 ppm.

[2] = test system: juvenile soft ticks (O. moubata); experiment: Efficacy against soft (Argaside) ticks on Guinea pigs (Example 2C); format: in vivo, Ornithodoros moubata; settings: Guinea pig
Experimental: (§2) Six Guinea pigs were treated orally, subcutaneously, or intraperitoneally with 10 mg/kg bodyweight of Compound 11-1 or fipronil (positive control). The Guinea pigs were locally co-infested with juvenile soft ticks (O. moubata) and bed bugs (C. lectularius) once before the treatment, and at different time points after treatment between days 2 and 50. Ten engorged ticks/bed bugs were collected to assess the percentage of killed individuals per species 24 hr after each infestation.
(§3) For Guinea pigs treated with Compound 11-1, the ticks and bed bugs died within 1 to 5 hr following infestation up to Day 29, and within 8 to 24 hr after day 29. For Guinea pigs treated with fipronil, ticks and bed bugs died within 1 to 7 hr after infestation up to Day 29, and within 8 to 24 hr after day 29.

[3] = Side effects in Guinea pigs, hard tick studies (Example 2D); format: in vivo; settings: Guinea pigs; either study (topical dip, oral, subcutaneous)
Experimental: (§4) Guinea pigs were divided into groups of three. Each group was subjected to one of the following treatments with either Compound 11-1, fipronil (positive control), or neither (negative control):
(§5) • 1. 100 ppm body weight topical administration by animal dip • 2. 10 mg/kg body weight oral administration • 3. 10 mg/kg body weight subcutaneous administration • 4. No treatment (negative control)
(§6) • 1. 25 ppm body weight topical administration by animal dip • 2. 2.5 mg/kg body weight oral administration • 3. 2.5 mg/kg body weight subcutaneous administration • 4. No treatment (negative control) One day before the treatment, all the Guinea pigs were infested with 100 vital juvenile (“nymph”) hard ticks (brown dog ticks, R. sanguineus). Engorged, detached nymphs were counted (eN) from Day 4 to Day 8 to calculate the efficacy of the treatments according to following formula: […]
In the first study, 32 engorged R. sanguineus nymphs were collected from animals of the untreated negative control group. And in the second study, 75 engorged R. sanguineus nymphs were collected from animals of the untreated negative control group. […] Thus, the inhibition of engorged nymphs for both Compound 11-1 and fipronil was 100%.

[4] = test system: brown dog ticks, R. sanguineus (nymphs); experiment: Efficacy against hard (Ixodide) ticks on Guinea pigs (Example 2D); format: in vivo, Rhipicephalus sanguineus; settings: all treated groups of Study 1 (100 ppm dip, 10 mg/kg oral, 10 mg/kg subcutaneous) and Study 2 (25 ppm dip, 2.5 mg/kg oral, 2.5 mg/kg subcutaneous), Day 4 to Day 8
Experimental: as §4, §5, §6
In addition, collected ticks were assessed for molting into the next stage.

[5] = Side effects in Guinea pigs, soft tick and bed bug study (Example 2C); format: in vivo
Experimental: as §2

M. musculinus = experiment: Efficacy against mites on mice (Example 2B); format: in vivo, Myocoptes musculinus; parameters: key: “+”=low infestation rate; “++”=medium infestation rate; “+++”=high infestation rate; settings: repeated 7 days later
Experimental: The mice were divided into groups of three, and treated topically with 100 ppm body weight, orally with 10 mg/kg body weight, or subcutaneously with 10 mg/kg body weight of Compound 11-1, fipronil (positive control), or nothing (negative control). This treatment was then repeated 7 days later. The infestation rate per mouse (“+”=low infestation rate, “++”=medium infestation rate, “+++”=high infestation rate) was assessed repeatedly on days 1, 6, 9, 13, and 23. Efficacy was defined as the inhibition of the mite infestation rate on treated mice relative to the negative control group.

[6] = Side effects in mice, flea study (Example 2A); format: in vivo; settings: topical 100 ppm, oral or subcutaneous 10 mg/kg
Experimental: as §1

[7] = test system: bed bugs (C. lectularius); experiment: Efficacy against bed bugs on Guinea pigs (Example 2C); format: in vivo, Cimex lectularius; settings: Guinea pig
Experimental: as §2, §3

## Cc1cc(C2=NOC(c3cc(Cl)cc(Cl)c3)(C(F)(F)F)C2)ccc1C(=O)NCC(=O)NCC(F)(F)F (racemic) [Compound 11-1, 4-[5-(3,5-dichlorophenyl)-5-trifluoromethyl-4,5-dihydroisoxazol-3-yl]-2-methyl-N-[(2,2,2-trifluoro-ethylcarbamoyl)-methyl]-benzamide]
Adult fleas (C. felis); oral 10 mg/kg, infested 1 hr after treatment, assessed 1 hr after infestation
  Flea inhibition (% of dead and damaged fleas): 43.3%
Adult fleas (C. felis); oral 10 mg/kg, infested 1 hr after treatment, assessed 24 hr after infestation
  Flea inhibition (% of dead and damaged fleas): 67.7%
Adult fleas (C. felis); oral 10 mg/kg, infested 3 hr after treatment, assessed 1 hr after infestation
  Flea inhibition (% of dead and damaged fleas): 44.3%
Adult fleas (C. felis); oral 10 mg/kg, infested 3 hr after treatment, assessed 24 hr after infestation
  Flea inhibition (% of dead and damaged fleas): 48.7%
Adult fleas (C. felis); oral 10 mg/kg, infested 6 hr after treatment, assessed 1 hr after infestation
  Flea inhibition (% of dead and damaged fleas): 17.7%
Adult fleas (C. felis); oral 10 mg/kg, infested 6 hr after treatment, assessed 24 hr after infestation
  Flea inhibition (% of dead and damaged fleas): 26.7%
Adult fleas (C. felis); oral 10 mg/kg, infested 24 hr after treatment, assessed 1 hr after infestation
  Flea inhibition (% of dead and damaged fleas): 37.7%
Adult fleas (C. felis); oral 10 mg/kg, infested 24 hr after treatment, assessed 24 hr after infestation
  Flea inhibition (% of dead and damaged fleas): 82.0%
Adult fleas (C. felis); subcutaneous 10 mg/kg, infested 1 hr after treatment, assessed 1 hr after infestation
  Flea inhibition (% of dead and damaged fleas): 7.7%
Adult fleas (C. felis); subcutaneous 10 mg/kg, infested 1 hr after treatment, assessed 24 hr after infestation
  Flea inhibition (% of dead and damaged fleas): 40.0%
Adult fleas (C. felis); subcutaneous 10 mg/kg, infested 3 hr after treatment, assessed 1 hr after infestation
  Flea inhibition (% of dead and damaged fleas): 31.0%
Adult fleas (C. felis); subcutaneous 10 mg/kg, infested 3 hr after treatment, assessed 24 hr after infestation
  Flea inhibition (% of dead and damaged fleas): 42.3%
Adult fleas (C. felis); subcutaneous 10 mg/kg, infested 6 hr after treatment, assessed 1 hr after infestation
  Flea inhibition (% of dead and damaged fleas): 21.0%
Adult fleas (C. felis); subcutaneous 10 mg/kg, infested 6 hr after treatment, assessed 24 hr after infestation
  Flea inhibition (% of dead and damaged fleas): 36.7%
Adult fleas (C. felis); subcutaneous 10 mg/kg, infested 24 hr after treatment, assessed 1 hr after infestation
  Flea inhibition (% of dead and damaged fleas): 100%
Adult fleas (C. felis); subcutaneous 10 mg/kg, infested 24 hr after treatment, assessed 24 hr after infestation
  Flea inhibition (% of dead and damaged fleas): 100%
Adult fleas (C. felis); topical 100 ppm body weight, infested 1 hr after treatment, assessed 1 hr after infestation
  Flea inhibition (% of dead and damaged fleas): 0%
Adult fleas (C. felis); topical 100 ppm body weight, infested 1 hr after treatment, assessed 24 hr after infestation
  Flea inhibition (% of dead and damaged fleas): 97.7%
Adult fleas (C. felis); topical 100 ppm body weight, infested 3 hr after treatment, assessed 1 hr after infestation
  Flea inhibition (% of dead and damaged fleas): 0%
Adult fleas (C. felis); topical 100 ppm body weight, infested 3 hr after treatment, assessed 24 hr after infestation
  Flea inhibition (% of dead and damaged fleas): 99.0%
Adult fleas (C. felis); topical 100 ppm body weight, infested 6 hr after treatment, assessed 1 hr after infestation
  Flea inhibition (% of dead and damaged fleas): 0%
Adult fleas (C. felis); topical 100 ppm body weight, infested 6 hr after treatment, assessed 24 hr after infestation
  Flea inhibition (% of dead and damaged fleas): 81.0%
Adult fleas (C. felis); topical 100 ppm body weight, infested 24 hr after treatment, assessed 1 hr after infestation
  Flea inhibition (% of dead and damaged fleas): 2%
Adult fleas (C. felis); topical 100 ppm body weight, infested 24 hr after treatment, assessed 24 hr after infestation
  Flea inhibition (% of dead and damaged fleas): 93.3%
[1]; blood spiked at 1 ppm
  Flea efficacy: 100%
[1]; blood spiked at 10 ppm
  Flea efficacy: 100%
[1]; blood spiked at 100 ppm
  Flea efficacy: 100%
[2]; intraperitoneal 10 mg/kg, after Day 31
  Efficacy against soft ticks (killed 24 hr after infestation): No efficacy was detected after Day 31.
[2]; intraperitoneal 10 mg/kg, up to Day 31
  Efficacy against soft ticks (killed 24 hr after infestation): 100% efficacy was observed up to Day 31.
[2]; oral 10 mg/kg, up to Day 31
  Efficacy against soft ticks (killed 24 hr after infestation): 100% efficacy was observed up to Day 31.
[2]; subcutaneous 10 mg/kg, after Day 33
  Efficacy against soft ticks (killed 24 hr after infestation): No efficacy was detected after Day 33.
[2]; subcutaneous 10 mg/kg, up to Day 31
  Efficacy against soft ticks (killed 24 hr after infestation): 100% efficacy was observed up to Day 31.
[2]; subcutaneous 10 mg/kg, up to Day 33
  Efficacy against soft ticks (killed 24 hr after infestation): 70% efficacy was observed up to Day 33.
[3]
  Side effects: No side effects were observed
[4]
  Engorged R. sanguineus nymphs collected: no nymphs were collected
  Inhibition of engorged nymphs: 100%
[5]; Guinea pig, oral 10 mg/kg, without clinical symptoms
  Death of the orally treated Guinea pig (Animal No. 1) after Day 31: not considered to be treatment-related
[5]; Guinea pigs, oral, subcutaneous or intraperitoneal 10 mg/kg
  Side effects: No side effects were observed
M. musculinus; oral 10 mg/kg, Day 1
  Mite infestation rate per mouse: + to ++
M. musculinus; oral 10 mg/kg, Day 6
  Mite infestation rate per mouse: ++
M. musculinus; oral 10 mg/kg, Day 9, 10 mg/kg
  Mite infestation rate per mouse: 2 mice: none and 1 mouse: +
M. musculinus; oral 10 mg/kg, Day 13
  Mite infestation rate per mouse: none
M. musculinus; oral 10 mg/kg, Day 23
  Mite infestation rate per mouse: none
M. musculinus; subcutaneous 10 mg/kg, Day 1
  Mite infestation rate per mouse: + to ++
M. musculinus; subcutaneous 10 mg/kg, Day 6
  Mite infestation rate per mouse: ++
M. musculinus; subcutaneous 10 mg/kg, Day 9
  Mite infestation rate per mouse: none
M. musculinus; subcutaneous 10 mg/kg, Day 13
  Mite infestation rate per mouse: none
M. musculinus; subcutaneous 10 mg/kg, Day 23
  Mite infestation rate per mouse: none
M. musculinus; topical 100 ppm body weight, Day 1
  Mite infestation rate per mouse: +
M. musculinus; topical 100 ppm body weight, Day 6
  Mite infestation rate per mouse: 2 mice: none and 1 mouse: +
M. musculinus; topical 100 ppm body weight, Day 9
  Mite infestation rate per mouse: none
M. musculinus; topical 100 ppm body weight, Day 13
  Mite infestation rate per mouse: none
M. musculinus; topical 100 ppm body weight, Day 23
  Mite infestation rate per mouse: none
[6]
  Side effects: No side effects were observed
[7]; intraperitoneal 10 mg/kg, after Day 35
  Efficacy against bed bugs (killed 24 hr after infestation): 35. No efficacy was detected after Day 35.
[7]; intraperitoneal 10 mg/kg, up to Day 33
  Efficacy against bed bugs (killed 24 hr after infestation): 100% efficacy was observed up to Day 33.
[7]; oral 10 mg/kg, up to Day 31
  Efficacy against bed bugs (killed 24 hr after infestation): 100% efficacy was observed up to Day 31.
[7]; subcutaneous 10 mg/kg, after Day 42
  Efficacy against bed bugs (killed 24 hr after infestation): 42. No efficacy was detected after Day 42.
[7]; subcutaneous 10 mg/kg, up to Day 35
  Efficacy against bed bugs (killed 24 hr after infestation): 100% efficacy was observed up to Day 35.
[7]; subcutaneous 10 mg/kg, up to Day 40
  Efficacy against bed bugs (killed 24 hr after infestation): 90% efficacy was observed up to Day 40.
